Measured values: patent US12060355B2, “Compounds for use in the treatment of fascioliasis” (Merck Patent GmbH, priority 2018, dated 2024)
pIC50: −log10 of the molar value. Read-outs that look alike come from different tables or passages of the source.

Assays:
F. hepatica adult fluke = F. hepatica adult fluke motility score, in vitro; format: cell-based, Fasciola hepatica; set-up: key: Good movement Score 1 • (Curled, sticking on wall, movement on petri plate or conical flask); Moderate movement Score 2 • (Less vigor but more than 10 seconds pulses or peristaltic waves); Resting Score 3 • (Less than 10 second pulses in head and body); Apathetic Score 4 • (Head and body with less than 2 second pulses); Faint movement of suckers Score 5 • (Movement of oral or ventral suckers only, whole body paralyzed); Inert Score 6 • (No movement at all or dead); conditions: for F. hepatica motility score after 24 h / F. hepatica motility score after 48 h / F. hepatica motility score after 72 h: adult fluke
Text: The routine biological assays using adult liver fluke are described in Alessandra Crusco, Cinzia Bordoni, Anand Chakroborty, Kezia C. L. Whatley, Helen Whiteland, Andrew D. Westwell, Karl F. Hoffmann, “Design, synthesis and anthelmintic activity of 7-keto-sempervirol analogues”, European Journal of Medicinal Chemistry, Volume 152, 2018, Pages 87-100.
The routine biological assays using adult or juvenile S. mansoni worms and cytotoxicity assays using MRC-5 cells have been disclosed previously in Mansour, N. R., et al. (2016). “High Throughput Screening Identifies Novel Lead Compounds with Activity against Larval, Juvenile and Schistosoma mansoni PLoS Negl Trop Dis 10(4): e0004659. […] Motility is scored as per the table below: • Good movement Score 1 • (Curled, sticking on wall, movement on petri plate or conical flask) • Moderate movement Score 2 • (Less vigor but more than 10 seconds pulses or peristaltic waves) • Resting Score 3 • (Less than 10 second pulses in head and body) • Apathetic Score 4 • (Head and body with less than 2 second pulses) • Faint movement of suckers Score 5 • (Movement of oral or ventral suckers only, whole body paralyzed) • Inert Score 6 • (No movement at all or dead) • (b) S. mansoni adult worms • (c) S. mansoni juvenile worms • (d) S. haemotobium adult worms • (e) Cytotoxicity against human MRC-5 cell line • (f) Cytotoxicity against human HepG2 cell lines

human HepG2 cell lines = format: cell-based; conditions: human HepG2 cell line
human MRC-5 cell line = test: Cytotoxicity against human MRC-5 cell line; format: cell-based
Protocol: (§1) The routine biological assays using adult or juvenile S. mansoni worms and cytotoxicity assays using MRC-5 cells have been disclosed previously in Mansour, N. R., et al. (2016). “High Throughput Screening Identifies Novel Lead Compounds with Activity against Larval, Juvenile and Schistosoma mansoni PLoS Negl Trop Dis 10(4): e0004659. Cytotoxicity assays using the HepG2 cell line were carried out as described in Molecular Diversity (2015) 19, 251-261. • (a) F. hepatica adult fluke motility score tested at 5 μM. Motility is scored as per the table below: • Good movement Score 1 • (Curled, sticking on wall, movement on petri plate or conical flask) • Moderate movement Score 2 • (Less vigor but more than 10 seconds pulses or peristaltic waves) • Resting Score 3 • (Less than 10 second pulses in head and body) • Apathetic Score 4 • (Head and body with less than 2 second pulses) • Faint movement of suckers Score 5 • (Movement of oral or ventral suckers only, whole body paralyzed) • Inert Score 6 • (No movement at all or dead) • (b) S. mansoni adult worms • (c) S. mansoni juvenile worms • (d) S. haemotobium adult worms • (e) Cytotoxicity against human MRC-5 cell line • (f) Cytotoxicity against human HepG2 cell lines

[1] = system: S. mansoni juvenile worms; test: S. mansoni juvenile worm assay, in vitro; format: cell-based; conditions: Schistosoma mansoni, read-out: S. mansoni Juvenile
Protocol: as §1

[2] = 5 μM, score 1 (good movement) to 6 (inert)

## CC(C)c1nc2cnc(-c3ccc(F)c(C(F)(F)F)c3)nc2n1-c1c(F)cc(O)cc1F [Example 89, 3,5-Difluoro-4-[2-(4-fluoro-3-trifluoromethyl-phenyl)-8-isopropyl-purin-9-yl]-phenol]
F. hepatica adult fluke; [2]
  F. hepatica motility score after 24 h: (6, 6, 6)
F. hepatica adult fluke; 5 μM, score 1 to 6 (inert)
  F. hepatica motility score after 48 h: (6, 6, 6)
  F. hepatica motility score after 72 h: (6, 6, 6)
Human HepG2 cell lines
  Cytotox HepG2: 4.8 µM

## CSc1nc2cc(Cl)c(Oc3cccc(Cl)c3Cl)cc2[nH]1 [Triclabendazole, reference compound]
F. hepatica adult fluke; 40 μM
  Mean motility score of F hepatica at 24 h: 2
  Mean motility score of F hepatica at 48 h: 3.5
  Mean motility score of F hepatica at 72 h: 6
F. hepatica adult fluke; 40 μM, score 1 to 6 (inert)
  F. hepatica motility score after 24 h: 3
  F. hepatica motility score after 48 h: 6
  F. hepatica motility score after 72 h: 6

## Cc1nc2cnc(-c3cccc(C(F)(F)F)c3)cn2c1-c1ccc(O)cc1F [Example 6, 3-fluoro-4-[2-methyl-6-[3-(trifluoromethyl)phenyl]imidazo[1,2-a]pyrazin-3-yl]phenol]
Human MRC-5 cell line
  Cytotox MRC-5: 15.8 µM

## O=P(O)(O)Oc1cc(F)c(-c2c(C3CC3)nc3cnc(-c4ccc(F)c(C(F)(F)F)c4)cn23)c(F)c1 [Example 62, Phosphoric acid mono-{4-[2-cyclopropyl-6-(4-fluoro-3-trifluoromethyl-phenyl)-imidazo[1,2-a]pyrazin-3-yl]-3,5-difluoro-phenyl} ester]
[1]
  pIC50: 8.43
Human HepG2 cell lines
  Cytotox HepG2: 14.8 µM

## COc1ccc(-c2c(C(C)C)nc3cnc(-c4cccc(C(F)(F)F)c4)cn23)cc1OP(=O)(O)O [Example 28, 2-methoxy-5-[2-(propan-2-yl)-6-[3-(trifluoromethyl)phenyl]imidazo[1,2-a]pyrazin-3-yl]phenoxyphosphonic acid]
[1]
  pIC50: 6.74
Human HepG2 cell lines
  Cytotox HepG2: 19.2 µM

## COc1ccc(-c2c(C)nc3ccc(-c4cccc(C(F)(F)F)c4)cn23)cc1O [Example 91, 2-methoxy-5-[2-methyl-6-[3-(trifluoromethyl)phenyl]imidazo[1,2-a]pyridin-3-yl]phenol]
[1]; juvenile worms in vitro, IC50
  pIC50: 6.28

## COc1ccc(-c2c(C(C)C)nc3ccc(-c4cccc(C(F)(F)F)c4)cn23)cc1O [Example 92, 2-methoxy-5-[2-isopropyl-6-[3-(trifluoromethyl)phenyl]imidazo[1,2-a]pyridin-3-yl]phenol]
[1]; juvenile worms in vitro, IC50
  pIC50: 6.44

## Fc1ccc(-c2cn3c(-c4ccc5[nH]ncc5c4F)c(C(F)(F)F)nc3cn2)cc1C(F)(F)F [Example 50, 3-(4-Fluoro-1H-indazol-5-yl)-6-(4-fluoro-3-trifluoromethylphenyl)-2-trifluoromethyl-imidazo[1,2-a]pyrazine]
F. hepatica adult fluke; 0.04 μM
  Mean motility score of F hepatica at 24 h: 1, 1, 1
  Mean motility score of F hepatica at 48 h: 1, 1, 1
  Mean motility score of F hepatica at 72 h: 1, 1, 1
F. hepatica adult fluke; 0.2 μM
  Mean motility score of F hepatica at 24 h: 2
  Mean motility score of F hepatica at 48 h: 2
  Mean motility score of F hepatica at 72 h: 2.5
F. hepatica adult fluke; 1 μM
  Mean motility score of F hepatica at 24 h: 6, 6, 6
  Mean motility score of F hepatica at 48 h: 6, 6, 6
  Mean motility score of F hepatica at 72 h: 6, 6, 6
F. hepatica adult fluke; 5 μM
  Mean motility score of F hepatica at 24 h: 6, 6, 6
  Mean motility score of F hepatica at 48 h: 6, 6, 6
  Mean motility score of F hepatica at 72 h: 6, 6, 6
F. hepatica adult fluke; [2]
  F. hepatica motility score after 24 h: (6, 6, 6) at 5 μM
F. hepatica adult fluke; 5 μM, score 1 to 6 (inert)
  F. hepatica motility score after 48 h: (6, 6, 6) at 5 μM
  F. hepatica motility score after 72 h: (6, 6, 6) at 5 μM

## CC(C)c1nc2ccc(-c3cccc(C(F)(F)F)c3)cn2c1-c1ccc(O)cc1F [Example 94, 3-fluoro-4-[2-isopropyl-6-[3-(trifluoromethyl)phenyl]imidazo[1,2-a]pyridin-3-yl]phenol]
F. hepatica adult fluke; [2]
  F. hepatica motility score after 24 h: (6, 6, 6)
F. hepatica adult fluke; 5 μM, score 1 to 6 (inert)
  F. hepatica motility score after 48 h: (6, 6, 6)
  F. hepatica motility score after 72 h: (6, 6, 6)
[1]; juvenile worms in vitro, IC50
  pIC50: 6.60
Human HepG2 cell lines
  Cytotox HepG2: 10.6 µM

## Cc1nc2ccc(-c3cccc(C(F)(F)F)c3)cn2c1-c1ccc(O)cc1F [Example 93, 3-fluoro-4-[2-methyl-6-[3-(trifluoromethyl)phenyl]imidazo[1,2-a]pyridin-3-yl]phenol]
[1]; juvenile worms in vitro, IC50
  pIC50: 6.08

## Cc1nc2cnc(-c3ccc(F)c(C(F)(F)F)c3)cn2c1-c1c(F)cc(OP(=O)(O)O)cc1F [Example 41, 3,5-difluoro-4-{6-[4-fluoro-3-(trifluoromethyl)phenyl]-2-methyl-imidazo[1,2-a]pyrazin-3-yl}phenoxyphosphonic acid]
[1]
  pIC50: 7.00
Human HepG2 cell lines
  Cytotox HepG2: 6.8 µM

## Fc1c(-c2c(C(F)(F)F)nc3cnc(-c4cccc(C(F)(F)C(F)(F)F)c4)cn23)ccc2[nH]ncc12 [Example 29, 4-fluoro-5-{2-trifluoromethyl-6-[3-(pentafluoroethyl)phenyl]imidazo[1,2-a]pyrazin-3-yl}-1H-indazole]
Human HepG2 cell lines
  Cytotox HepG2: 8.9 µM

## Oc1cc(F)c(-c2c(C3CC3)nc3cnc(-c4ccc(F)c(S(F)(F)(F)(F)F)c4)cn23)c(F)c1 [Example 56, 4-[2-Cyclopropyl-6-(4-fluoro-3-pentafluorosulfanyl-phenyl)-imidazo[1,2-a]pyrazin-3-yl]-3,5-difluoro-phenol]
Human HepG2 cell lines
  Cytotox HepG2: 10.1 µM

## Cc1nc2cnc(-c3ccc(F)c(C(F)(F)C(F)(F)F)c3)cn2c1-c1c(F)cc(O)cc1F [Example 53, 3,5-Difluoro-4-[6-(4-fluoro-3-pentafluoroethyl-phenyl)-2-methyl-imidazo[1,2-a]pyrazin-3-yl]-phenol]
Human HepG2 cell lines
  Cytotox HepG2: 8.8 µM

## CCc1nn2cnc(-c3ccc(F)c(C(F)(F)F)c3)cc2c1-c1c(F)cc(O)cc1F [Example 48, 4-(2-ethyl-5-(4-fluoro-3-(trifluoromethyl)phenyl)pyrazolo[1,5-c]pyrimidin-3-yl)-3,5-difluorophenol]
Human HepG2 cell lines
  Cytotox HepG2: 9.8 µM

## CC(C)c1nc2cnc(-c3cccc(C(F)(F)F)c3)cn2c1-c1ccc2[nH]ncc2c1F [Example 21, 4-fluoro-5-{2-propan-2-yl-6-[3-trifluoromethylphenyl]imidazo[1,2-a]pyrazin-3-yl}-1H-indazole]
Human HepG2 cell lines
  Cytotox HepG2: 15.1 µM

## Cc1n[nH]c2ccc(-c3c(C(C)C)nc4cnc(-c5cccc(C(F)(F)F)c5)cn34)cc12 [Example 51, 2-Isopropyl-3-(3-methyl-1H-indazol-5-yl)-6-(3-trifluoromethyl-phenyl)-imidazo[1,2-a]pyrazine]
[1]; juvenile worms in vitro, IC50
  pIC50: 6.08
Human HepG2 cell lines
  Cytotox HepG2: 10.3 µM

## CC(C)c1cc(-c2cn3c(-c4ccc5[nH]ncc5c4F)c(C(F)(F)F)nc3cn2)ccn1 [Example 87, 3-(4-Fluoro-1H-indazol-5-yl)-6-(2-isopropyl-pyridin-4-yl)-2-trifluoromethyl-imidazo[1,2-a]pyrazine]
Human HepG2 cell lines
  Cytotox HepG2: 9.5 µM

## CC(C)c1nn2cnc(-c3ccc(F)c(C(F)(F)F)c3)cc2c1-c1c(F)cc(O)cc1F [Example 47, 3,5-difluoro-4-(5-(4-fluoro-3-(trifluoromethyl)phenyl)-2-isopropylpyrazolo[1,5-c]pyrimidin-3-yl)phenol]
F. hepatica adult fluke; [2]
  F. hepatica motility score after 24 h: (6, 6, 6) at 5 μM
F. hepatica adult fluke; 5 μM, score 1 to 6 (inert)
  F. hepatica motility score after 48 h: (6, 6, 6) at 5 μM
  F. hepatica motility score after 72 h: (6, 6, 6) at 5 μM
Human HepG2 cell lines
  Cytotox HepG2: 8.9 µM

## CC(C)Oc1cccc(-c2cn3c(-c4ccc5[nH]ncc5c4F)c(C(F)(F)F)nc3cn2)c1 [Example 86, 3-(4-Fluoro-1H-indazol-5-yl)-6-(3-isopropoxy-phenyl)-2-trifluoromethyl-imidazo[1,2-a]pyrazine]
Human HepG2 cell lines
  Cytotox HepG2: 13.2 µM

## CC(C)c1nn2cnc(-c3ccc(F)c(C(F)(F)C(F)(F)F)c3)cc2c1-c1ccc2[nH]ncc2c1F [Example 58, 3-(4-Fluoro-1H-indazol-5-yl)-5-(4-fluoro-3-pentafluoroethyl-phenyl)-2-isopropyl-pyrazolo[1,5-c]pyrimidine]
Human HepG2 cell lines
  Cytotox HepG2: 10.8 µM
